According to US9382254B2, “Compounds and pharmaceutical compositions thereof for the treatment of cystic fibrosis” (Galapagos NV, priority 2013, dated 2016):

Each molecule was assayed against T1, CFTR ΔF508 mutant (Homo sapiens, UniProt P13569, DEL508-508) (assay: YFP-halide influx assay for the CFTR-ΔF508 mutation, gluconate buffer). Details: CFBE41o- cells, forskolin 10.67 μM.
T1 construct: expressed in transfected cells; host or cells: CFBE41o- (adenoviral transduction)
T1 sequence (P13569 with tags, fused parts or gaps DEL508-508): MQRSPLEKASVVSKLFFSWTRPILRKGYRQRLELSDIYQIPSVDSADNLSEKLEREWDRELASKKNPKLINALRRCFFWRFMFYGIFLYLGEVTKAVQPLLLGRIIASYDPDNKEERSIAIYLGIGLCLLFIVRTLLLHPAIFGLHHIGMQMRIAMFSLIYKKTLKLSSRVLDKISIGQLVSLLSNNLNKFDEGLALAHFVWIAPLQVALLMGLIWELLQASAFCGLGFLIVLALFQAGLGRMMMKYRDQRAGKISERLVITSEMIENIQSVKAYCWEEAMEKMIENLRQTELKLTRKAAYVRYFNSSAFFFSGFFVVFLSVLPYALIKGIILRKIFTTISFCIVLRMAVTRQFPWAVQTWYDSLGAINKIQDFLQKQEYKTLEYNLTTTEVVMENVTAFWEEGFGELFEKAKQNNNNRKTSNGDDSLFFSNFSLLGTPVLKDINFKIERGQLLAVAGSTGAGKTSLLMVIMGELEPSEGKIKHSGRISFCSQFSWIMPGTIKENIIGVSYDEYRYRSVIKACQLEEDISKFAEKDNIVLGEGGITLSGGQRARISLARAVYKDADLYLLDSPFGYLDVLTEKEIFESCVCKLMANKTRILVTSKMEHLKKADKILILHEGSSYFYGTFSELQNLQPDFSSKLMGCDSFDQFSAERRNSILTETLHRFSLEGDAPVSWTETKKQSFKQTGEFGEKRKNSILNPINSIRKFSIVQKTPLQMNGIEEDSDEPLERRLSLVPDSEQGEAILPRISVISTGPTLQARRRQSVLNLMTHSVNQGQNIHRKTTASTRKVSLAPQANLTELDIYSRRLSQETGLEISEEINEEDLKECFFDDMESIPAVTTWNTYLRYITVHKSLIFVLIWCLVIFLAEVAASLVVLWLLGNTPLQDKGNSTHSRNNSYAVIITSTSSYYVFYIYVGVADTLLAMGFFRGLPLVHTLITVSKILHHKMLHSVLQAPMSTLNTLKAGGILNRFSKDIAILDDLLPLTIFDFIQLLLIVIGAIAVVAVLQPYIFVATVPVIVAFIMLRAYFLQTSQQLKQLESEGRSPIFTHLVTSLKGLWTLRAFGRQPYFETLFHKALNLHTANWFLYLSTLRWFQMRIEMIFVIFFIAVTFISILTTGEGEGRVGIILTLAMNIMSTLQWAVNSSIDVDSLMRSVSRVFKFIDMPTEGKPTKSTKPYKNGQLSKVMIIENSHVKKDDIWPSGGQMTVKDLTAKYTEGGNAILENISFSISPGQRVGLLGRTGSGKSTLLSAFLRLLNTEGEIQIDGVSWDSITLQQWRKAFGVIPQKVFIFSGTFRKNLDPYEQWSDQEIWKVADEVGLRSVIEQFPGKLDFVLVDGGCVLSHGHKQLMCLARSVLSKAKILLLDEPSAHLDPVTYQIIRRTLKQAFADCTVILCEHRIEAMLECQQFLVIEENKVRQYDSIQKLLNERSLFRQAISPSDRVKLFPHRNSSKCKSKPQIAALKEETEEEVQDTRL
Assay type: cell-based
Excerpt: The YFP halide influx assay measures the functionality of the cystic fibrosis Transmembrane Conductance regulator (CFTR) channels in the cystic fibrosis bronchial epithelium cell line CFBE41o-. The assay is used to evaluate the capacity of compounds to increase the open probability of existing CFTR channels in the membrane. It makes use of the observation that the yellow fluorescent protein (YFP) variant YFP H148Q, I152L has its fluorescence substantially quenched by halide ions like Cl^− and I^−. (Galietta, Haggie, & Verkman, 2001) (Nagai, et al., 2002)
For this purpose, CFBE41o-cells are seeded in 96 well plates (6000 CFBE cells/well). One day after seeding, the CFBE cells are transduced with adenoviral vectors that direct the expression of the CFTR ΔF508 mutant and of the YFP reporter. Cells are incubated at 27° C., 5% CO2 for 24 hours so as to allow for the proper folding and migration to the membrane of the CFTR channel or treated with a CFTR modulator during 24 hours at 37° C.
The I^−-induced quenching of fluorescence is recorded immediately after injection of I^− for 7 seconds. The capacity of a compound to increase the channel opening is directly correlated with the decrease in fluorescence, and is expressed as (1-(fluorescence after 7 seconds (F)/fluorescence before injection (F0))) and an EC50 can be derived from a (1-F/F0) vs compound concentration plot.
An EC50 of 169 nM was found for Cc1ccc(C(=O)Nc2sc(S(=O)(=O)N(C)C)cc2C(N)=O)s1 [Compound 15, N-(3-carbamoyl-5-(N,N-dimethylsulfamoyl)thiophen-2-yl)-5-methylthiophene-2-carboxamide] in this work. An EC50 of 265 nM was found for NC(=O)c1cc(S(=O)(=O)N2CCCCC2)sc1NC(=O)c1ccccc1Cl [Compound 17, 2-(2-chlorobenzamido)-5-(piperidin-1-ylsulfonyl)thiophene-3-carboxamide] in this work. An EC50 of 472 nM was found for COc1cccc(C(=O)Nc2sc(S(=O)(=O)N3CCCCC3)cc2C(N)=O)c1 [Compound 18, 2-(3-methoxybenzamido)-5-(piperidin-1-ylsulfonyl)thiophene-3-carboxamide] in this work. An EC50 of 118 nM was found for NC(=O)c1cc(S(=O)(=O)N2CCCCC2)sc1NC(=O)c1ccccc1F [Compound 19, 2-(2-fluorobenzamido)-5-(piperidin-1-ylsulfonyl)thiophene-3-carboxamide] in this work. An EC50 of 392 nM was found for NC(=O)c1cc(S(=O)(=O)N2CCCCC2)sc1NC(=O)c1ccc(Cl)cc1 [Compound 20, 2-(4-chlorobenzamido)-5-(piperidin-1-ylsulfonyl)thiophene-3-carboxamide] in this work. An EC50 of 484 nM was found for COc1ccc(C(=O)Nc2sc(S(=O)(=O)N3CCCCC3)cc2C(N)=O)cc1 [Compound 21, 2-(4-methoxybenzamido)-5-(piperidin-1-ylsulfonyl)thiophene-3-carboxamide] in this work. An EC50 of 317 nM was found for N#Cc1ccc(C(=O)Nc2sc(S(=O)(=O)N3CCCCC3)cc2C(N)=O)cc1 [Compound 22, 2-(4-cyanobenzamido)-5-(piperidin-1-ylsulfonyl)thiophene-3-carboxamide] in this work. An EC50 of 642 nM was found for CC(C)(C)c1ccc(C(=O)Nc2sc(S(=O)(=O)N3CCCCC3)cc2C(N)=O)s1 [Compound 23, 5-tert-butyl-N-(3-carbamoyl-5-(piperidin-1-ylsulfonyl)thiophen-2-yl) thiophene-2-carboxamide] in this work. An EC50 of 772 nM was found for COc1ccccc1C(=O)Nc1sc(S(=O)(=O)N2CCCCC2)cc1C(N)=O [Compound 24, 2-(2-methoxybenzamido)-5-(piperidin-1-ylsulfonyl)thiophene-3-carboxamide] in this work. An EC50 of 945 nM was found for N#Cc1ccccc1C(=O)Nc1sc(S(=O)(=O)N2CCCCC2)cc1C(N)=O [Compound 25, 2-(2-cyanobenzamido)-5-(piperidin-1-ylsulfonyl)thiophene-3-carboxamide] in this work. An EC50 of 289 nM was found for NC(=O)c1cc(S(=O)(=O)N2CCCCC2)sc1NC(=O)c1ccc(F)cc1 [Compound 26, 2-(4-fluorobenzamido)-5-(piperidin-1-ylsulfonyl)thiophene-3-carboxamide] in this work. An EC50 of 290 nM was found for CC(C)(C)c1ccc(C(=O)Nc2sc(S(=O)(=O)N3CCCCC3)cc2C(N)=O)cc1 [Compound 27, 2-(4-tert-butylbenzamido)-5-(piperidin-1-ylsulfonyl)thiophene-3-carboxamide] in this work. An EC50 of 624 nM was found for CCCC(=O)Nc1sc(S(=O)(=O)N2CCCCC2)cc1C(N)=O [Compound 28, 2-butyramido-5-(piperidin-1-ylsulfonyl)thiophene-3-carboxamide] in this work. An EC50 of 272 nM was found for CC(C)(C)C(=O)Nc1sc(S(=O)(=O)N2CCCCC2)cc1C(N)=O [Compound 29, 5-(piperidin-1-ylsulfonyl)-2-pivalamidothiophene-3-carboxamide] in this work. An EC50 of 910 nM was found for Cn1ccc(C(=O)Nc2sc(S(=O)(=O)N3CCCCC3)cc2C(N)=O)n1 [Compound 30, N-(3-carbamoyl-5-(piperidin-1-ylsulfonyl)thiophen-2-yl)-1-methyl-1H-pyrazole-3-carboxamide] in this work. An EC50 of 184 nM was found for CC1(C(=O)Nc2sc(S(=O)(=O)N3CCCCC3)cc2C(N)=O)CC1 [Compound 31, 2-(1-methylcyclopropanecarboxamido)-5-(piperidin-1-ylsulfonyl) thiophene-3-carboxamide] in this work. An EC50 of 1500 nM was found for NC(=O)c1cc(S(=O)(=O)N2CCCCC2)sc1NC(=O)Cc1ccc(F)cc1 [Compound 32, 2-(2-(4-fluorophenyl)acetamido)-5-(piperidin-1-ylsulfonyl)thiophene-3-carboxamide] in this work. An EC50 of 9840 nM was found for Cc1nnc(C(=O)Nc2sc(S(=O)(=O)N3CCCCC3)cc2C(N)=O)o1 [Compound 33, N-(3-carbamoyl-5-(piperidin-1-ylsulfonyl)thiophen-2-yl)-5-methyl-1,3,4-oxadiazole-2-carboxamide] in this work. An EC50 of 290 nM was found for NC(=O)c1cc(S(=O)(=O)N2CCCCC2)sc1NC(=O)c1cnccn1 [Compound 34, N-(3-carbamoyl-5-(piperidin-1-ylsulfonyl)thiophen-2-yl)pyrazine-2-carboxamide] in this work. An EC50 of 3280 nM was found for NC(=O)c1cc(S(=O)(=O)N2CCCCC2)sc1NC(=O)c1c[nH]cn1 [Compound 35, N-(3-carbamoyl-5-(piperidin-1-ylsulfonyl)thiophen-2-yl)-1H-imidazole-4-carboxamide] in this work. An EC50 of 293 nM was found for NC(=O)c1cc(S(=O)(=O)N2CCCCC2)sc1NC(=O)C1CCC(F)(F)CC1 [Compound 37, 2-(4,4-difluorocyclohexanecarboxamide)-5-(piperidin-1-ylsulfonyl) thiophene-3-carboxamide] in this work. An EC50 of 900 nM was found for NC(=O)c1cc(S(=O)(=O)N2CCCCC2)sc1NC(=O)C1(C(F)(F)F)CC1 [Compound 38, 5-(piperidin-1-ylsulfonyl)-2-(1-(trifluoromethyl)cyclopropanecarboxamido) thiophene-3-carboxamide] in this work. An EC50 of 293 nM was found for NC(=O)c1cc(S(=O)(=O)N2CCCCC2)sc1NC(=O)c1ccc(F)s1 [Compound 39, N-(3-carbamoyl-5-(piperidin-1-ylsulfonyl)thiophen-2-yl)-5-fluorothiophene-2-carboxamide] in this work. An EC50 of 574 nM was found for NC(=O)c1cc(S(=O)(=O)N2CCCCC2)sc1NC(=O)CCc1ccccc1 [Compound 40, 2-(3-phenylpropanamido)-5-(piperidin-1-ylsulfonyl) thiophene-3-carboxamide] in this work. An EC50 of 9840 nM was found for NC(=O)c1cc(S(=O)(=O)N2CCCCC2)sc1NC(=O)c1cnn2cccnc12 [Compound 41, N-(3-carbamoyl-5-(piperidin-1-ylsulfonyl)thiophen-2-yl)pyrazolo[1,5-a]pyrimidine-3-carboxamide] in this work. An EC50 of 739 nM was found for NC(=O)c1cc(S(=O)(=O)N2CCCCC2)sc1NC(=O)C1CC1 [Compound 42, 2-(cyclopropanecarboxamido)-5-(piperidin-1-ylsulfonyl) thiophene-3-carboxamide] in this work. An EC50 of 670 nM was found for CC(C)(C)n1cc(C(=O)Nc2sc(S(=O)(=O)N3CCCCC3)cc2C(N)=O)cn1 [Compound 43, 1-tert-butyl-N-(3-carbamoyl-5-(piperidin-1-ylsulfonyl)thiophen-2-yl)-1H-pyrazole-4-carboxamide] in this work. An EC50 of 696 nM was found for NC(=O)c1cc(S(=O)(=O)N2CCCCC2)sc1NC(=O)C1CC(F)(F)C1 [Compound 44, 2-(3,3-difluorocyclobutanecarboxamido)-5-(piperidin-1-ylsulfonyl) thiophene-3-carboxamide] in this work. An EC50 of 1280 nM was found for CC1(C(=O)Nc2sc(S(=O)(=O)N3CCOCC3)cc2C(N)=O)CC1 [Compound 45, 2-(1-methylcyclopropanecarboxamido)-5-(morpholinosulfonyl) thiophene-3-carboxamide] in this work. An EC50 of 284 nM was found for NC(=O)c1cc(S(=O)(=O)N2CCOCC2)sc1NC(=O)c1ccccc1F [Compound 46, 2-(2-fluorobenzamido)-5-(morpholinosulfonyl) thiophene-3-carboxamide] in this work. An EC50 of 2660 nM was found for CC(C)(C)C(=O)Nc1sc(S(=O)(=O)N2CCOCC2)cc1C(N)=O [Compound 47, 5-(morpholinosulfonyl)-2-pivalamidothiophene-3-carboxamide] in this work. An EC50 of 253 nM was found for COc1ccccc1C(=O)Nc1sc(S(=O)(=O)N2CCOCC2)cc1C(N)=O [Compound 48, 2-(2-methoxybenzomido)-5-(morpholinosulfonyl) thiophene-3-carboxamide] in this work. An EC50 of 842 nM was found for CC(C)(C)c1ccc(C(=O)Nc2sc(S(=O)(=O)N3CCOCC3)cc2C(N)=O)cc1 [Compound 49, 2-(4-tert-butylbenzamido)-5-(morpholinosulfonyl) thiophene-3-carboxamide] in this work. An EC50 of 391 nM was found for NC(=O)c1cc(S(=O)(=O)N2CCOCC2)sc1NC(=O)c1cc2ccccc2s1 [Compound 50, N-(3-carbamoyl-5-(morpholinosulfonyl)thiophen-2-yl)benzo[b] thiophene-2-carboxamide] in this work. An EC50 of 599 nM was found for CC(C)(C)c1ccc(C(=O)Nc2sc(S(=O)(=O)N3CCOCC3)cc2C(N)=O)s1 [Compound 51, 5-tert-butyl-N-(3-carbamoyl-5-(morpholinosulfonyl)thiophen-2-yl) thiophene-2-carboxamide] in this work. An EC50 of 204 nM was found for NC(=O)c1cc(S(=O)(=O)N2CCCCC2)sc1NC(=O)c1ccccc1C1CC1 [Compound 52, 2-(2-cyclopropylbenzamido)-5-(piperidin-1-ylsulfonyl) thiophene-3-carboxamide] in this work. An EC50 of 1260 nM was found for NC(=O)c1cc(S(=O)(=O)N2CCCCC2)sc1NC(=O)c1cccc(-n2cccn2)c1 [Compound 53, 2-(3-(1H-pyrazol-1-yl)benzamido)-5-(piperidin-1-ylsulfonyl)thiophene-3-carboxamide] in this work. An EC50 of 3160 nM was found for NC(=O)c1cc(S(=O)(=O)N2CCCCC2)sc1NC(=O)c1cccc(-c2cc[nH]n2)c1 [Compound 54, 2-(3-(1H-pyrazol-3-yl)benzamido)-5-(piperidin-1-ylsulfonyl)thiophene-3-carboxamide] in this work.
